Experimental data from US20240189265A1, “COMPOSITIONS AND TECHNIQUES FOR VAGINAL INSERTION” (Daré Bioscience, Inc., priority 2021, published 2024).

Legend:
[1] = Solubility of drug substance in simulated vaginal fluid; format: physicochemical; settings: fassgf or other biorelevant
[2] = Compatibility of Diclofenac Sodium in Gel Formulation 1; format: physicochemical; settings: 2%, 3% gels, viscosity, pH, appearance
Excerpt: Variation in pH was reported between prototypes but was expected due to the chemical nature of the API.

solubility [1]: ~16 µg/mL
compatibility with the Gel Formulation 1 composition [2]: Compatible
Compound: O=C(O)Cc1ccccc1Nc1c(Cl)cccc1Cl [Diclofenac Sodium]
